Reference: US7250409B2, “Ningalin B analogs employable for reversing multidrug resistance” (The Scripps Research Institute, priority 2000, dated 2007)
Entries after “also recorded” stand apart in the source; their conditions may differ.

Columns and labels:
HCT116/VM46 = experiment: Reversal of multidrug resistance: resensitizing HCT116/VM46 to vinblastine and doxorubicin; assay type: cell-based, human; conditions: for resensitization of HCT116/VM46 compared with verapamil: vinblastine and doxorubicin
L1210 = L1210 cytotoxic assay; assay type: cell-based
Text: FIG. 6 illustrates a table with a comparison of the cytotoxic activity of ningalin B and some analogs with some commonly used compounds against three different cell lines.
(§1) Cytotoxic Activity and Reversal of Multidrug Resistance. […] (Quesada, A. R.; et al. Br. J. Cancer 1996, 74, 677.) With exception of ningalin A, (Ningalin A, lamellarin O, lukianol A, and permethyl storniamide A: Boger, D. L.; et al. J. Am. Chem. Soc. 1999, 121, 54.) the biological evaluation of the ningalin family has not been explored. Consequently, ningalin B and a number of structurally related synthetic intermediates were tested in a L1210 cytotoxic assay, and the results are summarized in FIGS. 6 and 10. […] (Ningalin A, lamellarin O, lukianol A, and permethyl storniamide A: Boger, D. L.; et al. J. Am. Chem. Soc. 1999, 121, 54.)

HCT116 = experiment: Cytotoxic activity against wild-type HCT116; assay type: cell-based, human
Method: as §1
(Quesada, A. R.; et al. Br. J. Cancer 1996, 74, 677.) P-gp is a 170 kDa plasma membrane glycoprotein encoded in humans by the MDR1 gene which exports drugs out of mammalian cells, lowering their intracellular concentration. (Patel, N. H.; et al. Invest. New Drugs 1994, 12, 1. Gottesman, M. M.; et al. Annu. Rev. Biochem. 1993, 62, 385.) Therefore, 7-14 were also tested against a wild-type human colon cancer cell line (HCT116) and two resistant HCT116 cell lines. The first resistant cell line (HCT116/VM46) embodies the MDR phenotype and overexpresses P-glycoprotein while the second cell line (HCT116/VP35) derives its resistance through underexpression of topoisomerase II. The examination of the latter cell line along with the wild-type HCT116 and their comparison with HCT116VM46 allows an accurate assessment of the MDR sensitivity as well as an assessment of one potential therapeutic target.

Pgp-170 = target: T1, Pgp-170 (Homo sapiens, UniProt P08183); experiment: Inhibition of dye efflux (rhodamine 123) from HCT116/VM46; assay type: cell-based; conditions: 30 min incubation in rhodamine 123 in phosphate buffer solution
T1 construct: The first resistant cell line (HCT116/VM46) embodies the MDR phenotype and overexpresses P-glycoprotein; endogenous in cells; host or cells: HCT116/VM46 (drug-resistant human colon cancer cell line)
Method: FIG. 8 illustrates the inhibition of dye efflux (rhodamine 123) from the HCT116/VM46 cell line. Accumulation of rhodamine 123 in the HCT116/VM46 cell line after 30 min incubation in […] rhodamine in phosphate buffer solution (Quesada, A. R.; et al., Br. J. Cancer 1996, 74, 677).
Fundamentally more important, many of the agents were found capable of reversing MDR at noncytotoxic concentrations, resensitizing HCT116/VM46 to vinblastine and doxorubicin (FIGS. 7 and 11).

[1] = cytotoxic activity relative to ningalin B

T1 sequence (P08183 whole entry): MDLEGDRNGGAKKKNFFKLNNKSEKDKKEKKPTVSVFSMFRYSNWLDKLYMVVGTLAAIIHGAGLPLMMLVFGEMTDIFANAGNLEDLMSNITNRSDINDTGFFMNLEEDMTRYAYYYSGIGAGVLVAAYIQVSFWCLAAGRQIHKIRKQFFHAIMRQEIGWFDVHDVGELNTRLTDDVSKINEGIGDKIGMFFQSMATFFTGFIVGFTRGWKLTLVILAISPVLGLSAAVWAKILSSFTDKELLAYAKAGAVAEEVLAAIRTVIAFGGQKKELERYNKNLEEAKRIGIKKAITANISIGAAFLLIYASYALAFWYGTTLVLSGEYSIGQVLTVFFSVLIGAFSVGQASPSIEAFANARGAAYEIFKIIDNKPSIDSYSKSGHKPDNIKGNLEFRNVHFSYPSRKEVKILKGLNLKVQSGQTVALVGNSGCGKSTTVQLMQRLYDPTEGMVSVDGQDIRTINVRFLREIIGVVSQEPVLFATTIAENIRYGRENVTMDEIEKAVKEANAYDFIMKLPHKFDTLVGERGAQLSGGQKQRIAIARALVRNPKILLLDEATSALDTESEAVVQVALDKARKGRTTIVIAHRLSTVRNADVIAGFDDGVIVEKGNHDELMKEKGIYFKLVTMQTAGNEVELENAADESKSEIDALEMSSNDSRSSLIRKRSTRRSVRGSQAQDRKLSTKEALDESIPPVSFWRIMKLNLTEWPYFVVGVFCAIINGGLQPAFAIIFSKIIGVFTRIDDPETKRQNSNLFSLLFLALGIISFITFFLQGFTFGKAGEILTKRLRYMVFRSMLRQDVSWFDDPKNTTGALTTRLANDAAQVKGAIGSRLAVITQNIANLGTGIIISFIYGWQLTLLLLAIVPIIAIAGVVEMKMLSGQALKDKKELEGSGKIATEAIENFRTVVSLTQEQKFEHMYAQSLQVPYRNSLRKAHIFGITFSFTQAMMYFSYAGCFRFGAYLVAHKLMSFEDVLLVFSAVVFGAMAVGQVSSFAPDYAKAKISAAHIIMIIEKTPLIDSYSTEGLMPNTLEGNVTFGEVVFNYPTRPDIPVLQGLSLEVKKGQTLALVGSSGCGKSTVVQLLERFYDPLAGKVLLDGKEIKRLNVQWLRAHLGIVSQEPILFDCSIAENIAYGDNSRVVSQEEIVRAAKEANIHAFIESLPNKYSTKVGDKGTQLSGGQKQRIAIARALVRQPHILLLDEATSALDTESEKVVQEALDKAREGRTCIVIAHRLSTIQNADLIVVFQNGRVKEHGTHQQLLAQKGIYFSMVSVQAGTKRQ

COc1ccc(CCN(C)CCCC(C#N)(c2ccc(OC)c(OC)c2)C(C)C)cc1OC (stereo not drawn) [verapamil, reference compound]
MDR reversal in HCT116/VM46 (HCT116/VM46; agent at 7.5 μM): complete reversal

COc1ccc(CCn2cc(-c3ccc(OC)c(OC)c3)c3c4cc(OC)c(OC)cc4oc(=O)c32)cc1OC [compound 13, Hexamethyl Ningalin B]
fold less active against L1210 than ningalin B (L1210; [1]): 5 fold
fold less active against HCT116 than ningalin B (HCT116; [1]): 2.5 fold
MDR reversal in HCT116/VM46 (HCT116/VM46; agent at 1 μM): complete MDR reversal
ability to resensitize HCT116/VM46 to vinblastine and doxorubicin (HCT116/VM46; agent at 1 μM): able to resensitize
resensitization of HCT116/VM46 compared with verapamil (HCT116/VM46; agent at 1 μM): more effectively than verapamil
MDR reversal in HCT116/VM46 (HCT116/VM46; agent at 7.5 μM): hypersensitive to vinblastine
MDR reversal, resensitizing HCT116/VM46 to vinblastine and doxorubicin (HCT116/VM46; concentration not given): potently reverse MDR

O=c1oc2cc(O)c(O)cc2c2c(-c3ccc(O)c(O)c3)cn(CCc3ccc(O)c(O)c3)c12 [ningalin B, Ningalin B]
cytotoxic activity against L1210 (L1210; L1210 cell line): only moderately active
cytotoxic activity against HCT116 (HCT116; wild-type human colon cancer cell line HCT116): only moderately active
MDR reversal, resensitizing HCT116/VM46 to vinblastine and doxorubicin (HCT116/VM46; concentration not given): not

COCOc1cc(OC)c(OC)cc1-c1c(-c2ccc(OC)c(OC)c2)c(C(=O)OC)n(CCc2ccc(OC)c(OC)c2)c1C(=O)OC [compound 10, Dimethyl 3-(4,5-Dimethoxy-2-(methoxymethoxy)phenyl)-4-(3,4-dimethoxyphenyl)-1-[2-(3,4-dimethoxyphenyl)ethyl]pyrrole-2,5-dicarboxylate]
inherent cytotoxic activity (cell line not given) (HCT116): lacking inherent cytotoxic activity
ability to resensitize HCT116/VM46 to vinblastine and doxorubicin (HCT116/VM46; agent at 1 μM): able to resensitize
resensitization of HCT116/VM46 compared with verapamil (HCT116/VM46; agent at 1 μM): more effectively than verapamil
MDR reversal in HCT116/VM46 (HCT116/VM46; agent at 7.5 μM): complete MDR reversal
MDR reversal, resensitizing HCT116/VM46 to vinblastine and doxorubicin (HCT116/VM46; concentration not given): potently reverse MDR

COC(=O)c1c(-c2ccc(OC)c(OC)c2)c2c3cc(OC)c(OC)cc3oc(=O)c2n1CCc1ccc(OC)c(OC)c1 [compound 11, Methyl 7,8-Dimethoxy-3-(2-(3,4-dimethoxyphenyl)ethyl)-1-(3,4-dimethoxyphenyl)-[1]-benzopyrano[3,4-b]pyrrol-4(3B)-one-2-carboxylate]
MDR reversal in HCT116/VM46 (HCT116/VM46; agent at 1 μM): complete MDR reversal
ability to resensitize HCT116/VM46 to vinblastine and doxorubicin (HCT116/VM46; agent at 1 μM): able to resensitize
resensitization of HCT116/VM46 compared with verapamil (HCT116/VM46; agent at 1 μM): more effectively than verapamil
MDR reversal in HCT116/VM46 (HCT116/VM46; agent at 7.5 μM): hypersensitive to vinblastine
MDR reversal, resensitizing HCT116/VM46 to vinblastine and doxorubicin (HCT116/VM46; concentration not given): potently reverse MDR

COc1ccc(-c2c3n(c4c(=O)oc5cc(OC)c(OC)cc5c24)CCc2cc(OC)c(OC)cc2C3=O)cc1OC [compound 14, 9,10-Dihydro-12,13-dimethoxy-1-(3′,4′-dimethoxyphenyl)-3,4-dimethoxy-[4,3-d]-[1]-benzopyrano-15H-benzazepino[3,2-a]-[3]-pyrrol-7,15(18H)-dione]
dye efflux (rhodamine 123) from HCT116/VM46 (Pgp-170): inhibited dye efflux
inherent cytotoxic activity (cell line not given) (HCT116): lacking inherent cytotoxic activity
MDR reversal in HCT116/VM46 (HCT116/VM46; agent at 1 μM): hypersensitivity of HCT116/VM46 to vinblastine
ability to resensitize HCT116/VM46 to vinblastine and doxorubicin (HCT116/VM46; agent at 1 μM): able to resensitize
resensitization of HCT116/VM46 compared with verapamil (HCT116/VM46; agent at 1 μM): more effectively than verapamil
MDR reversal, resensitizing HCT116/VM46 to vinblastine and doxorubicin (HCT116/VM46; concentration not given): potently reverse MDR; also recorded: most potent MDR reversal agent identified in this series
sensitivity of HCT116/VM46 towards vinblastine in presence of agent (HCT116/VM46; concentration not given, vinblastine): hypersensitivity towards vinblastine

COc1ccc(CCn2c(C(=O)N(C)C)c(-c3ccc(OC)c(OC)c3)c3c4cc(OC)c(OC)cc4oc(=O)c32)cc1OC [compound 15, N,N-Dimethyl 7,8-Dimethoxy-3-(2-(3,4-dimethoxyphenyl)ethyl)-1-(3,4-dimethoxyphenyl)-[1]-benzopyrano[3,4-b]pyrrol-4(3H)-one-2-carboxamide]
inherent cytotoxic activity (cell line not given) (HCT116): lacking inherent cytotoxic activity
MDR reversal, resensitizing HCT116/VM46 to vinblastine and doxorubicin (HCT116/VM46; concentration not given): potently reverse MDR
